Results from BigSolDB 2.1.

CC1(C)COP(=O)(C(Nc2ccccc2)c2ccccc2)OC1 (stereo not drawn)
Conditions	solubility (mole fraction)
in 1,2-dichloroethane, 278.65 K	0.0102
in 1,2-dichloroethane, 283.65 K	0.0119
in 1,2-dichloroethane, 288.65 K	0.0143
in 1,2-dichloroethane, 293.25 K	0.0169
in 1,2-dichloroethane, 298.15 K	0.0191
in 1,2-dichloroethane, 303.15 K	0.0229
in 1,2-dichloroethane, 308.25 K	0.0265
in 1,2-dichloroethane, 313.15 K	0.031
in 1,2-dichloroethane, 318.15 K	0.035
in 1,2-dichloroethane, 323.15 K	0.0395
in 1,2-dichloroethane, 328.15 K	0.0437
in 1,2-dichloroethane, 333.15 K	0.0526
in 1,4-dioxane, 285.65 K	0.00609
in 1,4-dioxane, 288.65 K	0.00661
in 1,4-dioxane, 293.65 K	0.00739
in 1,4-dioxane, 298.15 K	0.00887
in 1,4-dioxane, 303.15 K	0.0103
in 1,4-dioxane, 308.15 K	0.0121
in 1,4-dioxane, 313.15 K	0.0139
in 1,4-dioxane, 318.15 K	0.0162
in 1,4-dioxane, 323.15 K	0.019
in 1,4-dioxane, 328.15 K	0.023
in THF, 278.65 K	0.00583
in THF, 283.65 K	0.00648
in THF, 288.15 K	0.00764
in THF, 293.25 K	0.00858
in THF, 298.25 K	0.0102
in THF, 303.15 K	0.0117
in THF, 307.95 K	0.0133
in THF, 313.15 K	0.0152
in THF, 318.05 K	0.0169
in THF, 322.65 K	0.0187
in THF, 327.15 K	0.0215
in THF, 332.65 K	0.0237
in acetone, 278.15 K	0.00244
in acetone, 283.75 K	0.00314
in acetone, 288.15 K	0.00432
in acetone, 293.75 K	0.00578
in acetone, 298.65 K	0.00728
in acetone, 302.75 K	0.00898
in acetone, 307.85 K	0.0112
in acetone, 311.75 K	0.0138
in acetone, 317.15 K	0.0171
in acetone, 321.25 K	0.0186
in acetonitrile, 278 K	0.00557
in acetonitrile, 285.65 K	0.0068
in acetonitrile, 288.75 K	0.00746
in acetonitrile, 293.75 K	0.00887
in acetonitrile, 298.25 K	0.0101
in acetonitrile, 303.25 K	0.0119
in acetonitrile, 308.15 K	0.0142
in acetonitrile, 312.75 K	0.0161
in acetonitrile, 317.65 K	0.0192
in acetonitrile, 322.45 K	0.0218
in acetonitrile, 327.75 K	0.0258
in acetonitrile, 335.35 K	0.0328
in benzene, 278.65 K	0.0011
in benzene, 283.65 K	0.00131
in benzene, 288.15 K	0.00162
in benzene, 293.25 K	0.00201
in benzene, 298.25 K	0.00245
in benzene, 303.15 K	0.00301
in benzene, 307.95 K	0.00381
in benzene, 313.15 K	0.00464
in benzene, 318.05 K	0.00519
in benzene, 322.65 K	0.00634
in benzene, 327.15 K	0.00711
in benzene, 332.65 K	0.0093
in benzene, 337.55 K	0.0107
in benzene, 343.15 K	0.0123
in benzene, 347.5 K	0.0149
in chloroform, 278.75 K	0.0352
in chloroform, 283.65 K	0.0382
in chloroform, 288.85 K	0.0403
in chloroform, 293.95 K	0.042
in chloroform, 298.35 K	0.0444
in chloroform, 303.25 K	0.0471
in chloroform, 307.75 K	0.0492
in chloroform, 313.15 K	0.0527
in chloroform, 317.95 K	0.0548
in chloroform, 322.75 K	0.0591
in chloroform, 327.95 K	0.0646
in dichloromethane, 278.65 K	0.00771
in dichloromethane, 283.25 K	0.00994
in dichloromethane, 288.65 K	0.012
in dichloromethane, 293.25 K	0.0152
in dichloromethane, 298.85 K	0.0189
in dichloromethane, 302.95 K	0.0232
in dichloromethane, 308.35 K	0.0274
in dichloromethane, 310.95 K	0.0317
in ethyl acetate, 293.65 K	0.00232
in ethyl acetate, 298.25 K	0.00278
in ethyl acetate, 303.15 K	0.00385
in ethyl acetate, 308.05 K	0.0046
in ethyl acetate, 312.95 K	0.00561
in ethyl acetate, 317.95 K	0.00671
in ethyl acetate, 322.95 K	0.00781
in ethyl acetate, 327.95 K	0.00913
in ethyl acetate, 332.75 K	0.0097
in ethyl acetate, 337.65 K	0.0111
in isopropanol, 278.15 K	0.0004
in isopropanol, 283.15 K	0.0005
in isopropanol, 288.35 K	0.00066
in isopropanol, 293.65 K	0.0008
in isopropanol, 298.15 K	0.00106
in isopropanol, 302.17 K	0.00128
in isopropanol, 307.95 K	0.00177
in isopropanol, 312.55 K	0.00203
in isopropanol, 317.55 K	0.00254
in isopropanol, 321.55 K	0.00318
in isopropanol, 326.65 K	0.00389
in isopropanol, 332.15 K	0.00485
in isopropanol, 337.55 K	0.00626
in isopropanol, 343.15 K	0.00791
in isopropanol, 347.5 K	0.00958
in methanol, 278.15 K	0.00151
in methanol, 283.65 K	0.002
in methanol, 289.15 K	0.00246
in methanol, 293.65 K	0.00312
in methanol, 298.15 K	0.00367
in methanol, 303.15 K	0.0045
in methanol, 307.95 K	0.00541
in methanol, 313.15 K	0.00662
in methanol, 318.15 K	0.00796
in methanol, 323.15 K	0.00984
in tetrachloromethane, 278.15 K	0.00015
in tetrachloromethane, 283.15 K	0.00019
in tetrachloromethane, 288.35 K	0.00026
in tetrachloromethane, 293.65 K	0.00034
in tetrachloromethane, 298.15 K	0.00044
in tetrachloromethane, 302.17 K	0.00051
in tetrachloromethane, 307.95 K	0.00066
in tetrachloromethane, 312.55 K	0.00085
in tetrachloromethane, 317.55 K	0.00103
in tetrachloromethane, 321.55 K	0.00121
in tetrachloromethane, 326.65 K	0.00143
in tetrachloromethane, 332.15 K	0.00203
in tetrachloromethane, 337.15 K	0.00246
